From US11779567B2, “Method for optimizing 5-hydroxytryptamine function in the brain for therapeutic purposes” (Evecxia Therapeutics, Inc., priority 2021, dated 2023)
Values joined by “and” are separate entries in the source; they are usually repeats but may differ in a detail not shown here. Equal entries are not always repeated. Where two headings read alike, the source gives them in different places.

Experiments:
[1] = Plasma 5-HTP pharmacokinetics of 24 h continuous IV 5-HTP infusion, Phase 1 study; type: in vivo, human
Method: Study Design. A Phase 1, randomized, double-blind, placebo-controlled, single ascending dose study was performed to evaluate the safety, tolerability and pharmacokinetics (PK) of 5-HTP solution for IV infusion when administered to healthy adults taking a selective serotonin reuptake inhibitor (SSRI), escitalopram, for 3 weeks. Study duration was 37±3 days. The total individual subject participation time was no more than 66 days including screening, dosing, and follow-up phases. The IV infusion duration was 24 h, dosing with 5-HTP solution for IV infusion (see Example 3, above) or placebo (0.9% saline).
Subjects. A total of 39 healthy male and female subjects were randomized across 5 cohorts, each with 8 subjects (6 active:2 placebo) per cohort except for Cohort 5 (5 active:2 placebo). For each cohort, first 2 sentinel subjects received IV 5-HTP (N=1) or placebo (N=1) prior to dosing of the remaining 5 or 6 subjects.
IV infusion. 5-HTP solution for IV infusion or placebo was administered IV at a constant rate or ramped rate of infusion over 24 hr.
Constant rate infusion. 5-HTP solution for IV infusion was administered at constant infusion rates of 1 mg/kg/24 hr in Cohort 1 and 3 mg/kg/24 hr in Cohort 2. The infusion rate was 41.67 ml/h.
Ramp rate infusion. To gradually elevate 5-HTP plasma levels, 5-HTP solution for IV infusion was administered at a ramp rate of infusion for Cohorts 3, Cohort 4, and Cohort 5, at average 5-HTP infusion rates of 3 mg/kg/24 hr, 2 mg/kg/24 hr and 1 mg/kg/24 hr, respectively. The infusion volume rates were 13.89 ml/hr at T=0-4 hr; 27.78 ml/hr at T=4-8 hr; 41.67 ml/hr at T=8-12 hr; and 55.55 ml/hr at T=12-24 hr.
Bioanalysis. Plasma samples for 5-HTP analysis were collected and stored at −80° C. Plasma samples for escitalopram analysis were collected and stored at −80° C. Plasma 5-HTP levels and plasma escitalopram levels were measured using standard liquid chromatography with tandem mass spectrometry (LC-MS-MS) methods. For 5-HTP analysis, plasma samples were collected at T=0, 1, 2, 3, 4, 5, 6, 8, 10, 12, 14, 22, 24, 26, 28, 30, 32, 36, and 48 hr. For escitalopram analysis, plasma samples were collected on Day 7, Day 21 (pre-infusion), Day 22 (end of infusion), and Day 23 (24 hr after end of infusion). Plasma escitalopram levels were averaged across days 21-23, during the time-period when subjects were admitted to the clinic and received 5-HTP solution for IV infusion or placebo.
Statistical analysis. Subjects receiving placebo across the 5 cohorts (N=2 per cohort) were pooled. Descriptive statistics were calculated for each quantitative variable within each treatment group and placebo (n, mean, standard deviation, median, minimum, maximum).
PK analysis of plasma 5-HTP. The PK population included subjects who received 5-HTP solution for IV infusion and completed the 24 h infusion. PK parameters were computed for each Cohort/dose/infusion paradigm. Placebo data from all cohorts were pooled.

[2] = some solvents (Jacobsen et al, 2016a); cited from earlier work
plasma cortisol = assay: Pharmacodynamics: acute increase in plasma cortisol; type: in vivo, human
Text: Background: Compounds that acutely elevate brain 5-HTExt can activate the hypothalamic pituitary adrenal axis and induce the release of cortisol from the adrenals into the plasma (Attenburrow et al, 2001; Demisch et al, 1986; Guan et al, 2020; Kapitany et al, 1999; Lowe et al, 2006; Meltzer et al, 1983; Sargent et al, 1998). Generally large, acute increases in brain 5-HTExt are required to increase cortisol and the effect desensitizes rapidly with prolonged serotonin elevation (Mashchak et al, 1983).
Method: Total plasma cortisol levels (expressed in μg/dL) were quantified using standard immunoassay methodology. Total plasma cortisol levels were measured at multiple time points during the 24 hr infusion period of 5-HTP solution for IV infusion or placebo. Total plasma cortisol levels were measured at baseline (T=0) before the start of infusion. Blood samples were collected at T=0, and at pre-specified timepoints following initiation of infusion (2, 4, 6, 8, 10, 12, 14, 22, 24 hr). The pharmacodynamic population included subjects who received IV 5-HTP and completed the 24 h infusion or placebo and who had escitalopram levels above the lower limit of quantitation.
Statistics: Changes from baseline value were calculated for each time point using descriptive statistics (n, arithmetic mean, SD, CV). A comparison between active treatment and placebo was made for each time point and cohort using ANOVA with Dunnett's post-hoc correction of the p-value to account for multiple testing. Significance was set at p<0.05. Statistical analysis was executed using SAS software Version 9.4,

[3] = both sexes, human, plasma, intravenous, 1 mg/kg, individual subjects, Constant rate 1 mg/kg/24 hr
[4] = both sexes, human, plasma, intravenous, 1 mg/kg, individual subjects, Ramp rate 1 mg/kg/24 hr
[5] = both sexes, human, plasma, intravenous, 2 mg/kg, individual subjects, Ramp rate 2 mg/kg/24 hr
[6] = both sexes, human, plasma, intravenous, 3 mg/kg, individual subjects, Constant rate 3 mg/kg/24 hr
[7] = both sexes, human, plasma, intravenous, 3 mg/kg, individual subjects, Ramp rate 3 mg/kg/24 hr
[8] = both sexes, human, plasma, iv, 1 mg/kg, Cohort 1, constant rate 1 mg/kg/24 hr IV, healthy adults on escitalopram, mean, N=6
[9] = both sexes, human, plasma, iv, 1 mg/kg, Cohort 5, ramp rate 1 mg/kg/24 hr IV, healthy adults on escitalopram, mean, N=5
[10] = both sexes, human, plasma, iv, 2 mg/kg, Cohort 4, ramp rate 2 mg/kg/24 hr IV, healthy adults on escitalopram, mean, N=6
[11] = both sexes, human, plasma, iv, 3 mg/kg, Cohort 2, constant rate 3 mg/kg/24 hr IV, healthy adults on escitalopram, mean, N=4 completers
[12] = both sexes, human, plasma, iv, 3 mg/kg, Cohort 3, ramp rate 3 mg/kg/24 hr IV, healthy adults on escitalopram, mean, N=6
[13] = individual subjects, Constant rate 1 mg/kg/24 hr
[14] = individual subjects, Constant rate 3 mg/kg/24 hr
[15] = individual subjects, Ramp rate 1 mg/kg/24 hr
[16] = individual subjects, Ramp rate 2 mg/kg/24 hr
[17] = individual subjects, Ramp rate 3 mg/kg/24 hr

N[C@@H](Cc1c[nH]c2ccc(O)cc12)C(=O)O [5-HTP, 5-hydroxytryptophan]
differences in CAve, AUCInf or AUCLast between constant rate and ramp rate infusion ([1]; 1 mg/kg/24 hr or 3 mg/kg/24 hr average infusion rates, p>0.05, unpaired t-test): no significant differences
CAve (0-24 h) ([1]; Cohort 1, constant rate 1 mg/kg/24 hr IV, healthy adults on escitalopram, mean, N=6): 94 ng/mL
initial 5-HTP plasma levels, T=1 h ([1]; Cohort 2, constant 3 mg/kg/24 hr, the 2 discontinued subjects): 304 ng/mL
CAve (0-24 h) ([1]; Cohort 2, constant rate 3 mg/kg/24 hr IV, healthy adults on escitalopram, mean, N=4 completers): 268 ng/mL
CAve (0-24 h) ([1]; Cohort 4, ramp rate 2 mg/kg/24 hr IV, healthy adults on escitalopram, mean, N=6): 160 ng/mL
CAve (0-24 h) ([1]; Cohort 5, ramp rate 1 mg/kg/24 hr IV, healthy adults on escitalopram, mean, N=5): 82 ng/mL
AUC(0-inf) [1, 3]: 2920 ng·h/mL
AUC(0-t) [1, 3]: 2830 ng·h/mL
CMax ([1]; both sexes, human, plasma, intravenous, 1 mg/kg, individual subjects, Constant rate 1 mg/kg/24 hr, read-out: CMax): 118 ng/mL
AUC(0-inf) [1, 4]: 2810 ng·h/mL
AUC(0-t) [1, 4]: 2770 ng·h/mL
CMax ([1]; both sexes, human, plasma, intravenous, 1 mg/kg, individual subjects, Ramp rate 1 mg/kg/24 hr, read-out: CMax): 179 ng/mL
AUC(0-inf) [1, 5]: 6650 ng·h/mL
AUC(0-t) [1, 5]: 6540 ng·h/mL
CMax ([1]; both sexes, human, plasma, intravenous, 2 mg/kg, individual subjects, Ramp rate 2 mg/kg/24 hr, read-out: CMax): 407 ng/mL
AUC(0-inf) [1, 6]: 8000 ng·h/mL
AUC(0-t) [1, 6]: 7960 ng·h/mL
CMax ([1]; both sexes, human, plasma, intravenous, 3 mg/kg, individual subjects, Constant rate 3 mg/kg/24 hr, read-out: CMax): 397 ng/mL
AUC(0-inf) [1, 7]: 11200 ng·h/mL
AUC(0-t) [1, 7]: 11100 ng·h/mL
CMax ([1]; both sexes, human, plasma, intravenous, 3 mg/kg, individual subjects, Ramp rate 3 mg/kg/24 hr, read-out: CMax): 613 ng/mL
AUC(0-inf) [1, 8]: 2970 ng·h/mL
AUC(0-t) [1, 8]: 2910 ng·h/mL
half-life [1, 8]: 3.71 h
CMax ([1]; both sexes, human, plasma, iv, 1 mg/kg, Cohort 1, constant rate 1 mg/kg/24 hr IV, healthy adults on escitalopram, mean, N=6, read-out: CMax): 141 ng/mL
AUC(0-inf) [1, 9]: 3290 ng·h/mL
AUC(0-t) [1, 9]: 3240 ng·h/mL
half-life [1, 9]: 4.52 h
CMax ([1]; both sexes, human, plasma, iv, 1 mg/kg, Cohort 5, ramp rate 1 mg/kg/24 hr IV, healthy adults on escitalopram, mean, N=5, read-out: CMax): 209 ng/mL
AUC(0-inf) [1, 10]: 6440 ng·h/mL
AUC(0-t) [1, 10]: 6330 ng·h/mL
half-life [1, 10]: 4.4 h
CMax ([1]; both sexes, human, plasma, iv, 2 mg/kg, Cohort 4, ramp rate 2 mg/kg/24 hr IV, healthy adults on escitalopram, mean, N=6, read-out: CMax): 395 ng/mL
AUC(0-inf) [1, 11]: 8850 ng·h/mL
AUC(0-t) [1, 11]: 8800 ng·h/mL
half-life [1, 11]: 4.84 h
CMax ([1]; both sexes, human, plasma, iv, 3 mg/kg, Cohort 2, constant rate 3 mg/kg/24 hr IV, healthy adults on escitalopram, mean, N=4 completers, read-out: CMax): 427 ng/mL
AUC(0-inf) [1, 12]: 11000 ng·h/mL
AUC(0-t) [1, 12]: 10900 ng·h/mL
half-life [1, 12]: 5.1 h
CMax ([1]; both sexes, human, plasma, iv, 3 mg/kg, Cohort 3, ramp rate 3 mg/kg/24 hr IV, healthy adults on escitalopram, mean, N=6, read-out: CMax): ~592 ng/mL
time to average steady state plasma levels after start of infusion ([1]; constant 5-HTP infusion rates 1 mg/kg/24 hr and 3 mg/kg/24 hr): approximately 4 h
concentration at 1 h ([1]; human, plasma, intravenous, 3 mg/kg/24 hr, Cohort 2, constant 3 mg/kg/24 hr, the 2 discontinued subjects, read-out: initial 5-HTP plasma levels, T=1 h): 248 ng/mL
AUCInf [1, 13]: 2551.36 ng·h/mL and 2930.09 ng·h/mL and 3832.68 ng·h/mL and 2234.41 ng·h/mL and 3351.07 ng·h/mL
AUCLast [1, 13]: 2530.16 ng·h/mL and 2885.80 ng·h/mL and 3762.18 ng·h/mL and 2185.63 ng·h/mL and 3291.36 ng·h/mL
CMax [1, 13]: 112 ng/mL and 143 ng/mL and 189 ng/mL and 114 ng/mL and 169 ng/mL
AUCInf [1, 14]: 9781.13 ng·h/mL and 7039.23 ng·h/mL and 10597.49 ng·h/mL
AUCLast [1, 14]: 9690.71 ng·h/mL and 6999.32 ng·h/mL and 10537.75 ng·h/mL
CMax [1, 14]: 480 ng/mL and 320 ng/mL and 512 ng/mL
AUCInf [1, 15]: 4399.83 ng·h/mL and 3862.84 ng·h/mL and 2807.47 ng·h/mL and 2572.27 ng·h/mL
AUCLast [1, 15]: 4345.10 ng·h/mL and 3799.02 ng·h/mL and 2767.78 ng·h/mL and 2505.93 ng·h/mL
CMax [1, 15]: 266 ng/mL and 247 ng/mL and 192 ng/mL and 160 ng/mL
AUCInf [1, 16]: 6254.18 ng·h/mL and 6207.11 ng·h/mL and 6316.80 ng·h/mL and 6043.68 ng·h/mL and 7134.20 ng·h/mL
AUCLast [1, 16]: 6191.76 ng·h/mL and 6095.21 ng·h/mL and 6245.16 ng·h/mL and 5955.75 ng·h/mL and 6968.01 ng·h/mL
CMax [1, 16]: 373 ng/mL and 352 ng/mL and 385 ng/mL and 414 ng/mL and 437 ng/mL
AUCInf [1, 17]: 11393.96 ng·h/mL and 13786.66 ng·h/mL and 10786.90 ng·h/mL and 8427.71 ng·h/mL and 10152.61 ng·h/mL
AUCLast [1, 17]: 11310.89 ng·h/mL and 13698.51 ng·h/mL and 10738.77 ng·h/mL and 8350.62 ng·h/mL and 10098.28 ng·h/mL
CMax [1, 17]: 660 ng/mL and 679 ng/mL and 644 ng/mL and 454 ng/mL and 502 ng/mL
time to average steady state plasma levels ([1]; variable (ramp) infusion, average rate 1-, 2-, and 3 mg/kg/24 hr): 14 to 24 h
soluble in some solvents [2]: up to 100 mg/ml
plasma cortisol levels relative to placebo (plasma cortisol; constant flow rate 1 mg/kg/24 hr, 2 hr after start of infusion, p<0.01): significantly higher
plasma cortisol levels relative to placebo (plasma cortisol; constant flow rate 3 mg/kg/24 hr, 2 hr after start of infusion, p<0.005): significantly higher
plasma cortisol levels relative to placebo (plasma cortisol; constant flow rate 3 mg/kg/24 hr, throughout the 24 hr infusion, except at the 24 hr time point): remained significantly higher
increase of plasma cortisol levels relative to placebo (plasma cortisol; ramp flow rate 1 mg/kg/24 hr, 14 hr, trend, p=0.0751): not statistically significant
plasma cortisol levels relative to placebo (plasma cortisol; ramp flow rate 2 mg/kg/24 hr, 14 hr after start of infusion, p<0.05): significantly higher
plasma cortisol levels relative to placebo (plasma cortisol; ramp flow rate 3 mg/kg/24 hr, 14 hr after start of infusion, p<0.0001): significantly higher
